In assay [1] the test system is Detroit-562 human pharyngeal carcinoma cells. Kind of assay: cells. The conditions noted are these: for Effect of incubation time on cell viability inhibition: incubation 1, 3 or 5 h. The method, then:
(compound 5) was used for the optimization of the conditions of the cell viability inhibition assays. First, the irradiation time was optimized. Detroit-562 pharyngeal cells were treated with the peptide-PpIX conjugate for 5 h, the unbound conjugate was washed out, and then the cells were irradiated for 0, 2, 10, or 30 min followed by 72 h of further incubation (Figure 6A).
Afterwards, the incubation time was optimized.
The cell viability inhibition of the synthesized GnRH-PpIX conjugates was measured on Detroit-562 cells using the previously optimized conditions (5 h treatment, 10 min irradiation).
Cells were seeded to 96-well plates (6·× 10^3 cells/well) 48 h prior to the treatment. The cells were treated with the peptides (10 μM) and conjugates (0.025–10 μM) in darkness. Stock solutions of the compounds were prepared in DMSO (5 mM) and all dilutions were made to contain 0.2% DMSO final concentration. The control wells were treated with medium or 0.2% DMSO containing medium. After 1, 3, or 5 h, the cells were washed once with medium, irradiated for 0, 2, 10, or 30 min and incubated for a further 72 h. The irradiation was performed by an Oriel type 250 W Quartz Tungsten Halogen lamp (Newport Corporation, CA, USA) with a 550 nm emission maximum. The light was filtered to exclude UV and IR components. The fluence rate was determined by a 10 A-P Nova laser power/energy monitor (Ophir, Optronix, Jerusalem, Israel) using the pyro-electric detector. Then, the MTT-test was performed according to the manufacturer’s instructions. Each point was measured using 3 parallels and each experiment was repeated twice.

For assay [2], the target named is T1, GnRH-R (membranes of human pituitary) (Homo sapiens, UniProt P30968).
T1 construct: Tissue samples derived by autopsy from normal human pituitary (anterior lobe); from tissue; host or cells: normal human pituitary (anterior lobe), autopsy; membrane homogenates
T1 sequence (P30968 1-328): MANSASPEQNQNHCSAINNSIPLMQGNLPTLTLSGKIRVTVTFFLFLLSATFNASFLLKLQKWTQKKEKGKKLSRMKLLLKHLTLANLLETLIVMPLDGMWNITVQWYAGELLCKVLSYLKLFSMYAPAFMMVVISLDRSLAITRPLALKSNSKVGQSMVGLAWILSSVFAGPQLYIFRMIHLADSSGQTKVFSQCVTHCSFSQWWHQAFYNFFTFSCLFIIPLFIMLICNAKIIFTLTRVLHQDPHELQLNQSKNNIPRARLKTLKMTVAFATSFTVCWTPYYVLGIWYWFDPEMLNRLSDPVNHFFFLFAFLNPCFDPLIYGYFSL
Nature of the assay: Radioligand binding (ligand competition) assay, displacement of [125I]-[6D-Trp]-GnRH-I, human pituitary membranes. The conditions noted are these: for Inhibition of the binding of [125I]-[6D-Trp]-GnRH-I: at a concentration of 10^-6 M, tissue (human pituitary / human prostate cancer) not specified. An excerpt:
(§1) The binding potency of the GnRH analogs and the GnRH-PpIX conjugates to human pituitary and human prostate cancer cells, that express GnRH-R in high concentration, was investigated by ligand competition assay.
(§2) Tissue samples derived by autopsy from normal human pituitary (anterior lobe) and human prostate cancer cells were obtained from a patient at the time of initial surgical treatment. The collection and the use of these specimens for our studies are approved by the local Institutional Ethics Committee. […] The assay was performed as described earlier. […] At the end of the incubation, 125 µL aliquots of suspension were transferred onto the top of 1 mL of ice-cold binding buffer containing 1.5% BSA in microcentrifuge tubes. The tubes were centrifuged at 12,000× g for 3 min at 4 °C. Supernatants were aspirated and the pellet was counted in a gamma counter. Protein concentration was determined by the method of Bradford, using a Bio-Rad protein assay kit (Bio-Rad Laboratories, Hercules, CA, USA). The LIGAND-PC computerized curve-fitting program of Munson and Rodbard was used to determine the receptor binding characteristics and IC50 values.
In general terms: Displacement assays read how much labelled ligand stays bound in the presence of the test substance.

Assay [3] concerns the target T2, GnRH-R (membranes of human prostate cancer cells) (Homo sapiens, UniProt P30968).
T2 construct: human prostate cancer cells were obtained from a patient at the time of initial surgical treatment; from tissue; host or cells: human prostate cancer specimen from a patient at surgery; membrane homogenates
T2 sequence (P30968 1-328): T1 sequence (P30968 1-328)
Kind of assay: Radioligand binding (ligand competition) assay, displacement of [125I]-[6D-Trp]-GnRH-I, human prostate cancer membranes.
Text: as §1, §2

The mark [4] stands for this setting: Detroit-562, 10 min irradiation.
Where [5] appears, read: membranes of human prostate cancer cells, read-out: IC50 Values, inhibition of [125I]-[6D-Trp]-GnRH-I binding, Human Prostate Cancer.
Setting [6] is: membranes of human pituitary, read-out: IC50 Values, inhibition of [125I]-[6D-Trp]-GnRH-I binding, Human Pituitary.
The mark [7] stands for this setting: Detroit-562, 0.1 µM, 5 h treatment, 10 min irradiation.

Where two headings read alike, the source gives them in different places. Square brackets hold non-standard residues; d marks the D form. Peptide text beside a SMILES is read from it. * marks the point of attachment. X1 = C=CC1=C(C)c2cc3[nH]c(cc4nc(cc5[nH]c(cc1n2)c(C)c5CCC(=O)O)C(CCC(=O)*)=C4C)c(C)c3C=C; pGlu = O=C1CC[C@@H](C(=O)O)N1; Butyryl = CCCC(=O)* Some results are limits rather than exact numbers.

For orientation: IC50 means the concentration that inhibits the measured activity by half.

Consider `C=CC1=C(C)c2cc3[nH]c(cc4nc(cc5[nH]c(cc1n2)c(C)c5CCC(=O)O)C(CCC(=O)O)=C4C)c(C)c3C=C` [PpIX, Protoporphyrin IX, reference compound], for which, in assay [1] (Detroit-562, 0.25 µM, 5 h treatment, 10 min irradiation), the Cell viability inhibition is given as ~ 50%. Also, in assay [1] (setting [4]), the “Effect of incubation time on cell viability inhibition” value is listed as “no significant difference”. Further, the IC50 in assay [1] (Homo sapiens, Detroit 562, light or radiation study, read-out: Calculated IC50 values, cell viability inhibition) was 209 ± 120 nM. For the same compound, the “Inhibition of the binding of [125I]-[6D-Trp]-GnRH-I” value (“Inhibition … [125I]-[6D-Trp]-GnRH-I” for short) in assay [2] is given as “did not inhibit”.
For the compound `CCCC(=O)NCCCC[C@H](NC(=O)[C@H](Cc1c[nH]c2ccccc12)NC(=O)[C@H](Cc1c[nH]cn1)NC(=O)[C@@H]1CCC(=O)N1)C(=O)N[C@@H](Cc1ccc(O)cc1)C(=O)N[C@H](CCCCN)C(=O)N[C@@H](CC(C)C)C(=O)N[C@@H](CCCNC(=N)N)C(=O)N1CCC[C@H]1C(=O)NCC(N)=O` [compound 2, GnRH-I[^4Lys(Bu), ^6D-Lys]] ([pGlu]HWK(Butyryl)Y[dK]LRPG-NH2), the results for the IC50 in assay [3] (setting [5]) and in assay [2] (setting [6]) were 8.61 ± 1.08 nM and 9.7 ± 1.07 nM, respectively.
For `CCCC(=O)NCCCC[C@H](NC(=O)[C@H](Cc1c[nH]c2ccccc12)NC(=O)[C@H](Cc1c[nH]cn1)NC(=O)[C@@H]1CCC(=O)N1)C(=O)N[C@@H](Cc1c[nH]cn1)C(=O)N[C@H](CCCCN)C(=O)N[C@@H](Cc1c[nH]c2ccccc12)C(=O)N[C@@H](Cc1ccc(O)cc1)C(=O)N1CCC[C@H]1C(=O)NCC(N)=O` [compound 3, GnRH-II[^4Lys(Bu), ^6D-Lys]] ([pGlu]HWK(Butyryl)H[dK]WYPG-NH2) the same measures were 4.65 ± 0.31 nM and 5.56 ± 1.07 nM.
For `CCCC(=O)NCCCC[C@H](NC(=O)[C@H](Cc1c[nH]c2ccccc12)NC(=O)[C@H](Cc1c[nH]cn1)NC(=O)[C@@H]1CCC(=O)N1)C(=O)N[C@@H](Cc1c[nH]cn1)C(=O)N[C@@H](CC(=O)OC)C(=O)N[C@@H](Cc1c[nH]c2ccccc12)C(=O)N[C@@H](CCCCN)C(=O)N1CCC[C@H]1C(=O)NCC(N)=O` [compound 4, GnRH-III[^4Lys(Bu), ^6Asp(OMe)]] the same measures were 6.56 ± 1.11 nM and 7.27 ± 0.92 nM.
As for `C=CC1=C(C)c2cc3[nH]c(cc4nc(cc5[nH]c(cc1n2)c(C)c5CCC(=O)O)C(CCC(=O)NCCCC[C@@H](NC(=O)[C@H](Cc1ccc(O)cc1)NC(=O)[C@H](CO)NC(=O)[C@H](Cc1c[nH]c2ccccc12)NC(=O)[C@H](Cc1c[nH]cn1)NC(=O)[C@@H]1CCC(=O)N1)C(=O)N[C@@H](CC(C)C)C(=O)N[C@@H](CCCNC(=N)N)C(=O)N1CCC[C@H]1C(=O)NCC(N)=O)=C4C)c(C)c3C=C` [compound 5, GnRH-I[^6D-Lys(PpIX)]], the IC50 was found to be 42.7 ± 7.04 nM in assay [3] (setting [5]), 62.3 ± 5.9 nM in assay [1] (5 h) and 36.3 ± 3.17 nM in assay [2] (setting [6]). Also, the Cell viability inhibition was greater than 90% in assay [1] (setting [7]) and 50% in assay [1] (Detroit-562, 5 h treatment, 2 min irradiation, sub-micromolar concentration). Moreover, the “Cell viability inhibition (irradiation time optimization)” value in assay [1] (setting [7]) is listed as ~ 98%; in assay [1] (Detroit-562, 0.1 µM, 5 h treatment, 30 min irradiation), ~ 98%. Besides, the “Toxicity in the absence of light” value in assay [1] (Detroit-562, 5 h treatment, 0 min irradiation, 72 h further incubation) is reported as “non-toxic”. In addition, the “Effect of incubation time on cell viability inhibition” value in assay [1] (setting [4]) is reported as “higher activity”.
Take `C=CC1=C(C)c2cc3[nH]c(cc4nc(cc5[nH]c(cc1n2)c(C)c5CCC(=O)O)C(CCC(=O)NCCCC[C@@H](NC(=O)[C@H](Cc1ccc(O)cc1)NC(=O)[C@H](CCCCNC(=O)CCC)NC(=O)[C@H](Cc1c[nH]c2ccccc12)NC(=O)[C@H](Cc1c[nH]cn1)NC(=O)[C@@H]1CCC(=O)N1)C(=O)N[C@@H](CC(C)C)C(=O)N[C@@H](CCCNC(=N)N)C(=O)N1CCC[C@H]1C(=O)NCC(N)=O)=C4C)c(C)c3C=C` [compound 6, GnRH-I[^4Lys(Bu), ^6D-Lys(PpIX)]] ([pGlu]HWK(Butyryl)Y[dK](X1)LRPG-NH2): the IC50 in assay [3] (setting [5]) is 41.8 ± 5.74 nM; in assay [1] (5 h), 89.8 ± 19.4 nM; in assay [2] (setting [6]), 42.3 ± 4.27 nM. The Cell viability inhibition in assay [1] (setting [7]) was 65–70%.
As to `C=CC1=C(C)c2cc3[nH]c(cc4nc(cc5[nH]c(cc1n2)c(C)c5CCC(=O)O)C(CCC(=O)NCCCC[C@@H](NC(=O)[C@H](Cc1c[nH]cn1)NC(=O)[C@H](CCCCNC(=O)CCC)NC(=O)[C@H](Cc1c[nH]c2ccccc12)NC(=O)[C@H](Cc1c[nH]cn1)NC(=O)[C@@H]1CCC(=O)N1)C(=O)N[C@@H](Cc1c[nH]c2ccccc12)C(=O)N[C@@H](Cc1ccc(O)cc1)C(=O)N1CCC[C@H]1C(=O)NCC(N)=O)=C4C)c(C)c3C=C` [compound 7, GnRH-II[^4Lys(Bu), ^6D-Lys(PpIX)]] ([pGlu]HWK(Butyryl)H[dK](X1)WYPG-NH2), the values for the IC50 in assay [3] (setting [5]), in assay [1] (5 h) and in assay [2] (setting [6]) were 84.5 ± 10.3 nM, 71.1 ± 6.2 nM and 79.4 ± 8.88 nM, respectively. The Cell viability inhibition in assay [1] (setting [7]) is greater than 90%.
On to `C=CC1=C(C)c2cc3[nH]c(cc4nc(cc5[nH]c(cc1n2)c(C)c5CCC(=O)O)C(CCC(=O)NCCCC[C@H](NC(=O)[C@H](Cc1c[nH]c2ccccc12)NC(=O)[C@H](CC(=O)OC)NC(=O)[C@H](Cc1c[nH]cn1)NC(=O)[C@H](CCCCNC(=O)CCC)NC(=O)[C@H](Cc1c[nH]c2ccccc12)NC(=O)[C@H](Cc1c[nH]cn1)NC(=O)[C@@H]1CCC(=O)N1)C(=O)N1CCC[C@H]1C(=O)NCC(N)=O)=C4C)c(C)c3C=C` [compound 8, GnRH-III[^4Lys(Bu), ^6Asp(OMe), ^8Lys(PpIX)]], for which the IC50 in assay [3] was 341 ± 21.1 nM; in assay [1] (read-out: Calculated IC50 values, cell viability inhibition, Detroit-562 cells, 5 h incubation, 10 min irradiation, further 72 h, MTT), 81.8 ± 12.6 nM; in assay [2] it was 289 ± 17.3 nM. In assay [1] (setting [7]), the Cell viability inhibition is on record as 65–70%.
In the case of “EGF: peptide used as binding specificity control [reference compound]”, in assay [2], the “Inhibition … [125I]-[6D-Trp]-GnRH-I” value is given as “did not inhibit”.
On the same count and under the same terms, the entry for “IGF-I: peptide used as binding specificity control [reference compound]” is “did not inhibit”; for “VIP: peptide used as binding specificity control [reference compound]” it is “did not inhibit”.
On to “glucagon: peptide used as binding specificity control [reference compound]”, for which, in assay [2], the “Inhibition … [125I]-[6D-Trp]-GnRH-I” value is recorded as “did not inhibit”.
On the same count and under the same terms, the value for “hGHRH: peptide used as binding specificity control [reference compound]” was “did not inhibit”; that for “somatostatin-14: peptide structurally and/or functionally unrelated to GnRH, binding specificity control [reference compound]” was “did not inhibit”.

The values above are taken from PMC6829278, “Suitability of GnRH Receptors for Targeted Photodynamic Therapy in Head and Neck Cancers” (International Journal of Molecular Sciences, 2019).
